Experimental data published in ChEMBL document CHEMBL1133444, “N-cycloalkyl derivatives of adenosine and 1-deazaadenosine as agonists and partial agonists of the A(1) adenosine receptor” (J Med Chem, 2000).

Assays:
Adenosine receptor A2a = Adenosine receptor A2a (Rattus norvegicus, UniProt P30543); assay: Binding affinity for adenosine A2A receptor was determined by displacement of [3H]CGS 21680 from rat striatal membranes.
Adenosine receptor A1 [1] = target: T1, Adenosine receptor A1 (Rattus norvegicus, UniProt P25099); assay: Stimulation of [35S]GTP-gamma-S, binding to rat brain membranes by adenosine A1 receptor activation; format: functional, cell membranes, Membrane
T1 sequence (P25099 whole entry): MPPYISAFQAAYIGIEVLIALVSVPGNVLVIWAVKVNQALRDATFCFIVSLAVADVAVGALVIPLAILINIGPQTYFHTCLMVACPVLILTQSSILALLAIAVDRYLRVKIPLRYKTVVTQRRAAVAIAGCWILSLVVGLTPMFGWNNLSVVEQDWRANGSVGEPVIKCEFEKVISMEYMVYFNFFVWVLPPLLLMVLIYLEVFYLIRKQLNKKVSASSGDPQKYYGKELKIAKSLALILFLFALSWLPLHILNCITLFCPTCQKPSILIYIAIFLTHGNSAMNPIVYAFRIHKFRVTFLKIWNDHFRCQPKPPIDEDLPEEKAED

Adenosine receptor A1 [2] = target: T1, Adenosine receptor A1; assay: Binding affinity for adenosine A1 receptor was assayed by displacement of [3H]DPCPX from rat cortical membranes.; format: cell membranes, Membrane
[3] = target: T2, Adenosine receptor A1 (Rattus norvegicus) (UniProt P25099)
T2 sequence (whole entry): T1 sequence (P25099 whole entry)

Adenosine receptor A1 [4] = target: T1, Adenosine receptor A1; assay: Binding affinity for adenosine A1 receptor, was assessed from the ability to displace [3H]-DPCPX (without GTP) from rat cortical membranes.
Adenosine receptor A1 [5] = target: T1, Adenosine receptor A1
[6] = target: T2, Adenosine receptor A1 (Rattus norvegicus); remark: listed apart in the source
Description: Binding affinity for adenosine A1 receptor, was assessed from the ability to displace [3H]DPCPX (without GTP) from rat cortical membranes, activity expressed as KH (affinity for the high-affinity state)

[7] = target: T2, Adenosine receptor A1 (Rattus norvegicus); remark: listed apart in the source
Description: Binding affinity for adenosine A1 receptor, was assessed from the ability to displace [3H]DPCPX (without GTP) from rat cortical membranes, activity expressed as KL (affinity for the low-affinity state)

[8] = % of the receptors in the high affinity state
[9] = target: T2, Adenosine receptor A1 (Rattus norvegicus); assay: Percent relative intrinsic activity with reference to CCPA
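For KH in this document: displacement of [3H]DPCPX binding from rat cortical membranes in the absence of GTP, KH giving affinity for the high-affinity receptor state.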
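For KL in this document: displacement of [3H]DPCPX from rat cortical membranes, assayed without GTP, with KL giving affinity for the low-affinity state of the receptor.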

Sequence of Adenosine receptor A2a (P30543 whole entry): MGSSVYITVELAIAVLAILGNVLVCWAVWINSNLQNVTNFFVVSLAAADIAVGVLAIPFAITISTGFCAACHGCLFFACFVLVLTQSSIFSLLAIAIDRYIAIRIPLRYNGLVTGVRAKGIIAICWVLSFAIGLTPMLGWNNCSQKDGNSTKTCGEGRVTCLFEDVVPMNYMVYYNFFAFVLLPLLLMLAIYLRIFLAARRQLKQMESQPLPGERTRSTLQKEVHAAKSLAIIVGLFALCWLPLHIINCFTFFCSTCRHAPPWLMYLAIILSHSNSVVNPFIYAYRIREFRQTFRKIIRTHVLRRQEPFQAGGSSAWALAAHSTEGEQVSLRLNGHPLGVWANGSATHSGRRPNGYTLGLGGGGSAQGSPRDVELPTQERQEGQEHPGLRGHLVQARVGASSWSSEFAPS

Row | Ki (Adenosine receptor A2a) | EC50 (Adenosine receptor A1 [1]) | Ki (Adenosine receptor A1 [2]) | RIA [3] | Ki (Adenosine receptor A1 [4]) | Ki (Adenosine receptor A1 [5]) | KH [6] | KL [7] | Structure (SMILES) | also measured
1 | 3150 nM | 86.4 nM | 19.6 nM | – | – | – | – | – | OC[C@H]1O[C@@H](n2cnc3c(NC4CCCCCC4)ncnc32)[C@H](O)[C@@H]1O | –
2 | 3370 nM | – | – | – | – | – | – | – | OC[C@H]1O[C@@H](n2cnc3c(NC4CCCC4)ncnc32)[C@H](O)[C@@H]1O [N6-CYCLOPENTYLADENOSINE] | –
3 | – | – | – | 0 | 369 nM | 1090 nM | 30.7 nM | 0.752 µM | OC[C@H]1O[C@@H](n2cnc3c(NC4CCCCCC4)nc(Cl)nc32)C[C@@H]1O | –
4 | 20000 nM | – | 595 nM | – | – | – | – | – | OC[C@H]1OC(n2cnc3c(NC4CCCCCCC4)cc(Cl)nc32)[C@H](O)[C@@H]1O (some centres not stated) | –
5 | – | – | – | 0 | 497 nM | 2560 nM | 61.7 nM | 1.59 µM | OC[C@H]1O[C@@H](n2cnc3c(NC4CCCCC4)nc(Cl)nc32)C[C@@H]1O | –
6 | – | 5110 nM | – | 33.8 | 524 nM | 23600 nM | 121 nM | 8.3 µM | OC[C@H]1O[C@@H](n2cnc3c(NC4CCC4)ncnc32)C[C@@H]1O | –
7 | 4180 nM | – | 53.5 nM | – | – | – | – | – | OC[C@H]1O[C@@H](n2cnc3c(NC4CCCCCCC4)ncnc32)[C@H](O)[C@@H]1O | –
8 | 13700 nM | – | 539 nM | – | – | – | – | – | OC[C@H]1OC(n2cnc3c(NC4CCCCCCC4)ccnc32)[C@H](O)[C@@H]1O (some centres not stated) | –
9 | 510 nM | 709 nM | 26.7 nM | – | – | – | – | – | OC[C@H]1O[C@@H](n2cnc3c(NC4CC4)ncnc32)[C@H](O)[C@@H]1O | –
10 | 4230 nM | – | 122 nM | – | – | – | – | – | OC[C@H]1OC(n2cnc3c(NC4CCCCCCC4)nc(Cl)nc32)[C@H](O)[C@@H]1O (some centres not stated) | –
11 | – | 5760 nM | – | 42.1 | 212 nM | 10200 nM | 39.3 nM | 3.52 µM | OC[C@H]1O[C@@H](n2cnc3c(NC4CCCC4)ncnc32)C[C@@H]1O | –
12 | 590 nM | – | 31.7 nM | – | – | – | – | – | OC[C@H]1O[C@@H](n2cnc3c(NC4CCCCC4)nc(Cl)nc32)[C@H](O)[C@@H]1O | –
13 | 1100 nM | 431 nM | 37.9 nM | – | – | – | – | – | OC[C@H]1OC(n2cnc3c(NC4CCCCCC4)nc(Cl)nc32)[C@H](O)[C@@H]1O (some centres not stated) | –
14 | – | 13700 nM | – | 24.9 | 769 nM | 20400 nM | 124 nM | 7.41 µM | OC[C@H]1O[C@@H](n2cnc3c(NC4CCCCCC4)ncnc32)C[C@@H]1O | –
15 | – | 9640 nM | – | 40.1 | 412 nM | 16700 nM | 92.5 nM | 7.33 µM | OC[C@H]1O[C@@H](n2cnc3c(NC4CCCCC4)ncnc32)C[C@@H]1O | –
16 | – | – | – | 0 | – | – | – | – | OC[C@H]1O[C@@H](n2cnc3c(NC4CC4)ncnc32)C[C@@H]1O | –
17 | 3110 nM | – | 41 nM | – | – | – | – | – | OC[C@H]1O[C@@H](n2cnc3c(NC4CCC4)cc(Cl)nc32)[C@H](O)[C@@H]1O | –

Row | Ki (Adenosine receptor A2a) | EC50 (Adenosine receptor A1 [1]) | Ki (Adenosine receptor A1 [2]) | RIA [3] | Ki (Adenosine receptor A1 [4]) | Ki (Adenosine receptor A1 [5]) | KH [6] | KL [7] | Structure (SMILES) | also measured
18 | 420 nM | – | 3.92 nM | – | – | – | – | – | OC[C@H]1O[C@@H](n2cnc3c(NC4CCC4)ncnc32)[C@H](O)[C@@H]1O | –
19 | 6550 nM | – | 109 nM | – | – | – | – | – | OC[C@H]1O[C@@H](n2cnc3c(NC4CCC4)ccnc32)[C@H](O)[C@@H]1O | –
20 | – | – | – | 0 | 659 nM | 1410 nM | 23.6 nM | 1.02 µM | OC[C@H]1O[C@@H](n2cnc3c(NC4CCCCCCC4)nc(Cl)nc32)C[C@@H]1O | RHA [8]: 14.5%
21 | 460 nM | – | 5.3 nM | – | – | – | – | – | OC[C@H]1O[C@@H](n2cnc3c(NC4CCC4)nc(Cl)nc32)[C@H](O)[C@@H]1O | –
22 | 2840 nM | 408 nM | 49 nM | – | – | – | – | – | OC[C@H]1O[C@@H](n2cnc3c(NC4CCCC4)cc(Cl)nc32)[C@H](O)[C@@H]1O | –
23 | 5120 nM | – | 169 nM | – | – | – | – | – | OC[C@H]1O[C@@H](n2cnc3c(NC4CCCCC4)ccnc32)[C@H](O)[C@@H]1O | –
24 | – | – | – | 0 | 586 nM | 9310 nM | 84.9 nM | 4.19 µM | OC[C@H]1O[C@@H](n2cnc3c(NC4CCCCCCC4)ncnc32)C[C@@H]1O | RHA [8]: 45.9%
25 | 5210 nM | – | 268 nM | – | – | – | – | – | OC[C@H]1O[C@@H](n2cnc3c(NC4CCCCC4)cc(Cl)nc32)[C@H](O)[C@@H]1O | –
26 | 4870 nM | 6580 nM | 247 nM | – | – | – | – | – | OC[C@H]1O[C@@H](n2cnc3c(NC4CCCCCC4)cc(Cl)nc32)[C@@H](O)C1O (some centres not stated) | –
27 | 9640 nM | 704 nM | 151 nM | – | – | – | – | – | OC[C@H]1O[C@@H](n2cnc3c(NC4CC4)cc(Cl)nc32)[C@H](O)[C@@H]1O | –
28 | – | 6180 nM | – | – | 724 nM | 14300 nM | 115 nM | 6.03 µM | OC[C@H]1O[C@@H](n2cnc3c(NC4CC4)nc(Cl)nc32)C[C@@H]1O | RIA [9]: 20.8%
29 | 2060 nM | 57.3 nM | – | – | – | – | – | – | OC[C@H]1O[C@@H](n2cnc3c(NC4CC4)nc(Cl)nc32)[C@H](O)[C@@H]1O | –
30 | 10100 nM | 475 nM | 100 nM | – | – | – | – | – | OC[C@H]1O[C@@H](n2cnc3c(NC4CCCC4)ccnc32)[C@H](O)[C@@H]1O | –
31 | – | 1560 nM | – | 8.3 | 154 nM | 1320 nM | 18.5 nM | 0.8 µM | OC[C@H]1O[C@@H](n2cnc3c(NC4CCCC4)nc(Cl)nc32)C[C@@H]1O | –
32 | 16400 nM | 1530 nM | 326 nM | – | – | – | – | – | OC[C@H]1O[C@@H](n2cnc3c(NC4CC4)ccnc32)[C@H](O)[C@@H]1O | –
33 | 9200 nM | 6360 nM | 364 nM | – | – | – | – | – | OC[C@H]1OC(n2cnc3c(NC4CCCCCC4)ccnc32)[C@H](O)[C@@H]1O (some centres not stated) | –

Row | Structure (SMILES) | Ki (Adenosine receptor A2a) | EC50 (Adenosine receptor A1 [1]) | Ki (Adenosine receptor A1 [2]) | RIA [3] | Ki (Adenosine receptor A1 [4]) | Ki (Adenosine receptor A1 [5]) | KH [6] | KL [7] | also measured
34 | OC[C@H]1O[C@@H](n2cnc3c(NC4CCC4)nc(Cl)nc32)C[C@@H]1O | – | 3710 nM | – | 19.5 | 245 nM | 3600 nM | 33.3 nM | 1.92 µM | –
